The results in this text go back to ChEMBL document CHEMBL3593175, “Bicyclic [3.3.0]-Octahydrocyclopenta[c]pyrrolo Antagonists of Retinol Binding Protein 4: Potential Treatment of Atrophic Age-Related Macular Degeneration and Stargardt Disease” (J Med Chem, 2015).

SMILES strings stand for the structures.

The target of data set [1] is T1, Retinol-binding protein 4 (Homo sapiens, UniProt P02753). Description: Inhibition of retinol-induced interaction of bacterially expressed MBP-tagged RBP4 (unknown origin) with Eu3+ cryptate labeled TTR by HTRF assay. A general note: In TR-FRET formats the signal depends on donor and acceptor labels being close together.
Data set [2] deals with T1, Retinol-binding protein 4. Kind of data set: Displacement of [3H]-retinol from RBP4 (unknown origin) by scintillation proximity assay. In general terms: In a radioligand displacement assay an active substance lowers the binding of a labelled ligand.
Data set [3] can be described thus: Metabolic stability in human liver microsomes assessed as compound remaining at 10 uM after 30 mins. The data set is classed as ADME. The conditions noted are these: read-out: Stability. A general note: Liver microsomes are vesicles of endoplasmic reticulum, rich in cytochrome P450 enzymes.
Data set [4] is described as follows: Metabolic stability in rat liver microsomes assessed as compound remaining at 10 uM after 30 mins. The data set is classed as ADME. To be noted: read-out: Stability.

Broadly, the IC50 is the concentration that gives 50% inhibition.

`Cc1cc(C(N)=O)nc(N2C[C@H]3C[C@@H](c4ccccc4C(F)(F)F)C[C@H]3C2)n1`: the values for the half-maximal inhibitory concentration (IC50) in data set [1] and in data set [2] were 248 nM and 3.3 nM, respectively.
As to `Cc1cc(-c2nnn[nH]2)nc(N2C[C@H]3C[C@@H](c4ccccc4C(F)(F)F)C[C@H]3C2)n1`, the IC50 in data set [1] was found to be 175 nM.
Regarding `Cc1ccc(N2C[C@H]3C[C@@H](c4ccccc4C(F)(F)F)C[C@H]3C2)nc1C(=O)O`, the IC50 is 4910 nM in data set [1] and 584 nM in data set [2].
`O=C(O)c1cncc(N2C[C@H]3C[C@@H](c4ccccc4C(F)(F)F)C[C@H]3C2)c1` came in with an IC50 in data set [2] of over 3000 nM.
In the case of `O=C(O)c1cccc(N2C[C@H]3C[C@@H](c4ccccc4C(F)(F)F)C[C@H]3C2)c1`, the values for the IC50 in data set [1] and in data set [2] were 3960 nM and 83.2 nM, respectively.
Regarding `Cc1ccc(C(=O)O)c(N2C[C@H]3C[C@@H](c4ccccc4C(F)(F)F)C[C@H]3C2)n1`, the IC50 in data set [1] came out at 2000 nM; in data set [2], 68.4 nM.
The compound `O=C(O)c1cncc(N2C[C@H]3C[C@@H](c4ccccc4C(F)(F)F)C[C@H]3C2)n1` yielded an IC50 in data set [2] of 166 nM.
For the compound `O=C(O)c1cnnc(N2C[C@H]3C[C@@H](c4ccccc4C(F)(F)F)C[C@H]3C2)c1`, the IC50 came to 437 nM in data set [1] and 23 nM in data set [2].
For `Cc1sc(N2C[C@H]3C[C@@H](c4ccccc4C(F)(F)F)C[C@H]3C2)nc1C(=O)O`, in that order: 495 nM and 29.3 nM.
In the case of `Cc1cc(C(=O)O)nc(N2C[C@H]3C[C@@H](c4cc(F)ccc4C(F)(F)F)C[C@H]3C2)n1`, the IC50 was found to be 33.4 nM in data set [1] and 46.3 nM in data set [2].
For `Cc1cc(C(=O)O)nc(N2C[C@H]3C[C@@H](c4cccc(F)c4C(F)(F)F)C[C@H]3C2)n1`, the IC50 in data set [2] was found to be 196 nM.
Turning to `Cc1cc(C(=O)O)nc(N2C[C@H]3C[C@@H](c4cc(F)ccc4Cl)C[C@H]3C2)n1`, the IC50 was 347 nM in data set [1] and 532 nM in data set [2].
Regarding `Cc1cc(C(=O)O)nc(N2C[C@H]3C[C@@H](c4cccc(F)c4Cl)C[C@H]3C2)n1`, the IC50 in data set [1] worked out at 504 nM; in data set [2], 137 nM.
The like results for `Cc1cc(C(=O)O)nc(N2C[C@H]3C[C@@H](c4cnccc4C(F)(F)F)C[C@H]3C2)n1` were, in that order, 821 nM and 51.8 nM.
On to `Cc1cc(C(=O)O)nc(N2C[C@H]3C[C@@H](c4cccnc4C(F)(F)F)C[C@H]3C2)n1`, for which the IC50 amounted to 719 nM in data set [1] and 31.1 nM in data set [2].
`COC(=O)c1cc(C)nc(N2CCC(c3ccccc3C(F)(F)F)CC2)n1`: the IC50 in data set [1] is 132 nM; in data set [2] it was 4.1 nM.
With `Cc1cc(C(=O)O)nc(N2CCC(c3ccccc3C(F)(F)F)CC2)n1`, the IC50 in data set [1] was found to be 188 nM; in data set [2] it was 35.3 nM. Further, the remaining at 0.5 h, 10 µM in data set [3] was found to be 68%; in data set [4] it was 96%.
As to `COC(=O)c1cc(C)nc(N2CCN(c3ccccc3C(F)(F)F)CC2)n1`, the values for the IC50 in data set [1] and in data set [2] were 1400 nM and 9.7 nM, respectively. Besides, the remaining at 0.5 h, 10 µM in data set [3] and in data set [4] was 0% throughout.
As to `Cc1cc(C(=O)O)nc(N2CCN(c3ccccc3C(F)(F)F)CC2)n1`, the IC50 in data set [1] was determined as 511 nM; in data set [2] it was 89.5 nM. The remaining at 0.5 h, 10 µM was determined as 18% in data set [3] and 63% in data set [4].
For `Cc1cc(C(=O)O)nc(N2C[C@@H]3CN(c4ccccc4C(F)(F)F)C[C@@H]3C2)n1`, in that order: 140 nM, 57.4 nM, 80% and 76%.
`COC(=O)c1cc(C)nc(N2C[C@H]3C[C@@H](c4ccccc4C(F)(F)F)C[C@H]3C2)n1`: the IC50 in data set [1] was 100 nM; in data set [2], 6.3 nM. Moreover, the remaining at 0.5 h, 10 µM in data set [3] came out at 0.2%; in data set [4], 9.8%.
For `O=C(O)c1ccnc(N2C[C@H]3C[C@@H](c4ccccc4C(F)(F)F)C[C@H]3C2)n1`, the IC50 in data set [2] is 20.8 nM.
For `COc1cc(C(=O)O)nc(N2C[C@H]3C[C@@H](c4ccccc4C(F)(F)F)C[C@H]3C2)n1`, the IC50 in data set [1] came out at 81.2 nM; in data set [2], 12.8 nM.
Turning to `CC(C)c1cc(C(=O)O)nc(N2C[C@H]3C[C@@H](c4ccccc4C(F)(F)F)C[C@H]3C2)n1`, the IC50 in data set [2] was 153 nM.
For `Cc1nc(N2C[C@H]3C[C@@H](c4ccccc4C(F)(F)F)C[C@H]3C2)ncc1C(=O)O`, the IC50 was 523 nM in data set [1] and 40.8 nM in data set [2].
